This experiment concerns the target T1, recombinant human GR (Homo sapiens, UniProt P04150).
T1 construct: purchased Panvera/Invitrogen P2812 (kit P2893)
T1 sequence (P04150 1-777): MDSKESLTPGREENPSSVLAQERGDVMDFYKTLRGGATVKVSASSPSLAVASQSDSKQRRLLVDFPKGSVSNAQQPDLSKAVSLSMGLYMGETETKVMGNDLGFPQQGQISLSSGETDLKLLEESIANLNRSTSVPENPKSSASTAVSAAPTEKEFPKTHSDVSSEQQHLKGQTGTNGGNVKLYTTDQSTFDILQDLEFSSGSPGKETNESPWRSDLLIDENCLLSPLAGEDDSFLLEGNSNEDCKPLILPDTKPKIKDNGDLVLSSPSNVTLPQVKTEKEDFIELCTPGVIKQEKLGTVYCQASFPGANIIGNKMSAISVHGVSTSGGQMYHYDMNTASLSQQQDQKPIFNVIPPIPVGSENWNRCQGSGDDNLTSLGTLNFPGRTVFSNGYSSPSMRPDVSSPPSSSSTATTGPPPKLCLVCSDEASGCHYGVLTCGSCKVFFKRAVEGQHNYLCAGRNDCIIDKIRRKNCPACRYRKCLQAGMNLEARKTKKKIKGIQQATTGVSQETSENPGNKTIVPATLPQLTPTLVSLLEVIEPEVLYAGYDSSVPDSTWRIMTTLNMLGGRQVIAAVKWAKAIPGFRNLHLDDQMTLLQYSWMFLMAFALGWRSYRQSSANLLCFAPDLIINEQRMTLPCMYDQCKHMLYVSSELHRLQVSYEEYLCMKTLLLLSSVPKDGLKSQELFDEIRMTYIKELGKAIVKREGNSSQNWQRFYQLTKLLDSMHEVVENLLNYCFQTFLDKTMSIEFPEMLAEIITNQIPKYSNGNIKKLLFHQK
Description: Human Glucocorticoid Receptor (GR) Assay (fluorescence polarization, Panvera/Invitrogen kit). It counts as binding. The settings on record: fluorescence polarization; GS Red tracer; 2 hours at room temperature; 100% control 10 μM Dexamethasone; read-out: Inhibition of GR binding, IC50. The procedure:
Human Glucocorticoid Receptor (GR) Assay
The assay is based on a commercial kit from Panvera/Invitrogen (Part number P2893). The assay technology is fluorescence polarization. […] The GR and Stabilizing Peptide reagents are stored at −70° C. while the GS Red is stored at −20° C. Also included in the kit are 1M DTT (Panvera, Part number P2325, stored at −20° C.) and GR Screening buffer 10× (Panvera, Part number P2814, stored at −70° C. initially but once thawed stored at room temperature). Avoid repeated freeze/thaws for all reagents. The GR Screening buffer 10× comprises 100 mM potassium phosphate, 200 mM sodium molybdate, 1 mM EDTA and 20% DMSO.
0% control was 100% DMSO and 100% control was 10 μM Dexamethasone. Background solution (8 μL; assay buffer 10×, Stabilizing Peptide, DTT and ice cold MQ water) was added to the background wells. GS Red solution (7 μL; assay buffer 10×, Stabilizing Peptide, DTT, GS Red and ice cold water) was added to all wells except background wells. GR solution (7 μL; assay buffer 10×, Stabilizing Peptide, DTT, GR and ice cold water) was added to all wells. The plate was sealed and incubated in a dark at room temperature for 2 hours.
Background: Polarisation of emitted light reports the rotation of a fluorescent probe.

One may read the IC50 as the concentration that inhibits the measured activity by half. On to `COCC(=O)O[C@]1(C(=O)SCCO)CC[C@H]2[C@@H]3CCC4=Cc5c(cnn5-c5ccc(F)cc5)C[C@]4(C)[C@H]3[C@@H](O)C[C@@]21C` [Example 32, (1R,3aS,3bS,10aR,10bS,11S,12aS)-7-(4-Fluorophenyl)-11-hydroxy-1-{[(2-hydroxy-ethyl)thio]carbonyl}-10a,12a-dimethyl-1,2,3,3a,3b,4,5,7,10,10a,10b,11,12,12a-tetradecahydrocyclopenta[5,6]naphtho[1,2-f]indazol-1-yl methoxyacetate], for which the IC50 is 1.6 nM. In the case of `CCC(=O)O[C@]1(C(=O)SC)CC[C@H]2[C@@H]3CCC4=Cc5c(cnn5-c5ccc(F)c(C(=O)SC)c5)C[C@]4(C)[C@H]3[C@@H](O)C[C@@]21C` [Example 175, (1R,3aS,3bS,10aR,10bS,11S,12aS)-7-{4-Fluoro-3-[(methylsulfanyl)carbonyl]phenyl}-11-hydroxy-10a,12a-dimethyl-1-[(methylsulfanyl)carbonyl]-1,2,3,3a,3b,4,5,7,10,10a,10b,11,12,12a-tetradecahydrocyclopenta[5,6]naphtho[1,2-f]indazol-1-yl propanoate], the IC50 turned out to be 18 nM.

For the compound `Cn1cc(C(=O)O[C@]2(C(=O)SCF)CC[C@H]3[C@@H]4CCC5=Cc6c(cnn6-c6ccc(F)cc6)C[C@]5(C)[C@H]4[C@@H](O)C[C@@]32C)nn1` [Example 48, (1R,3aS,3bS,10aR,10bS,11S,12aS)-1-{[(Fluoromethyl)thio]carbonyl}-7-(4-fluoro-phenyl)-11-hydroxy-10a,12a-dimethyl-1,2,3,3a,3b,4,5,7,10,10a,10b,11,12,12a-tetradecahydrocyclopenta[5,6]naphtho[1,2-f]indazol-1-yl 1-methyl-1H-1,2,3-triazole-4-carboxylate], the IC50 came to 4.9 nM. Regarding `COCSC(=O)[C@@]1(OC(=O)COC)CC[C@H]2[C@@H]3CCC4=Cc5c(cnn5-c5ccc(F)nc5)C[C@]4(C)[C@H]3[C@@H](O)C[C@@]21C` [Example 158, (1R,3aS,3bS,10aR,10bS,11S,12aS)-7-(6-Fluoropyridin-3-yl)-11-hydroxy-1-{[(methoxymethyl)sulfanyl]carbonyl}-10a,12a-dimethyl-1,2,3,3a,3b,4,5,7,10,10a,10b,11,12,12a-tetradecahydrocyclopenta[5,6]naphtho[1,2-f]indazol-1-yl methoxyacetate], the IC50 turned out to be 2.4 nM.

Consider `Cc1ccoc1C(=O)O[C@]1(C(=O)SCF)CC[C@H]2[C@@H]3CCC4=Cc5c(cnn5-c5ccc(F)cc5)C[C@]4(C)[C@H]3[C@@H](O)C[C@@]21C` [Example 57, (1R,3aS,3bS,10aR,10bS,11S,12aS)-1-{[(Fluoromethyl)thio]carbonyl}-7-(4-fluorophenyl)-11-hydroxy-10a,12a-dimethyl-1,2,3,3a,3b,4,5,7,10,10a,10b,11,12,12a-tetradecaphydrocyclopenta[5,6]naphtho[1,2-f]indazol-1-yl 3-methylfuran-2-carboxylate], for which the IC50 was determined as 3.8 nM. For `C[C@]12Cc3cnn(-c4ccc(F)cc4)c3C=C1CC[C@@H]1[C@@H]2[C@@H](O)C[C@@]2(C)[C@H]1CC[C@]2(OC(=O)CC1CCCC1)C(=O)SCC#N` [Example 114, (1R,3aS,3bS,10aR,10bS,11S,12aS)-1-{[(Cyanomethyl)sulfanyl]carbonyl}-7-(4-fluorophenyl)-11-hydroxy-10a,12a-dimethyl-1,2,3,3a,3b,4,5,7,10,10a,10b,11,12,12a-tetradecahydrocyclopenta[5,6]naphtho[1,2-f]indazol-1-yl cyclopentylacetate], the IC50 was 16 nM.

In the case of `C[C@]12Cc3cnn(-c4ccc(F)cc4)c3C=C1CC[C@@H]1[C@@H]2[C@@H](O)C[C@@]2(C)[C@H]1CC[C@]2(OC(=O)c1ccco1)C(=O)SCC(O)CO` (stereo partly drawn) [Example 84, (1R,3aS,3bS,10aR,10bS,11S,12aS)-1-{[(2,3-Dihydroxypropyl)sulfanyl]carbonyl}-7-(4-fluorophenyl)-11-hydroxy-10a,12a-dimethyl-1,2,3,3a,3b,4,5,7,10,10a,10b,11,12,12a-tetradecahydrocyclopenta[5,6]naphtho[1,2-f]indazol-1-yl furan-2-carboxylate], the IC50 was 5 nM. For `CSSCC(=O)[C@@]1(OC(C)=O)CC[C@H]2[C@@H]3CCC4=Cc5c(cnn5-c5ccc(F)cc5)C[C@]4(C)[C@H]3[C@@H](O)C[C@@]21C` [Example 134, (1R,3aS,3bS,10aR,10bS,11S,12aS)-7-(4-Fluorophenyl)-11-hydroxy-10a,12a-dimethyl-1-[(methyldisulfanyl)acetyl]-1,2,3,3a,3b,4,5,7,10,10a,10b,11,12,12a-tetradecahydrocyclopenta[5,6]naphtho[1,2-f]indazol-1-yl acetate], the IC50 amounted to 2.9 nM. As for `C[C@]12Cc3cnn(-c4ccc(F)cc4)c3C=C1CC[C@@H]1[C@@H]2[C@@H](O)C[C@@]2(C)[C@H]1CC[C@]2(OC(=O)c1ccco1)C(=O)OCC#N` [Example 65, Cyanomethyl(1R,3aS,3bS,10aR,10bS,11S,12aS)-7-(4-fluorophenyl)-1-[(furan-2-ylcarbonyl)oxy]-11-hydroxy-10a,12a-dimethyl-1,2,3,3a,3b,4,5,7,10,10a,10b,11,12,12a-tetradecahydrocyclopenta[5,6]naphtho[1,2-f]indazole-1-carboxylate], the figure is 2.6 nM; as for `CSC(=O)[C@@]1(OC(=O)c2ccco2)CC[C@H]2[C@@H]3CCC4=Cc5c(cnn5-c5ccc(F)nc5)C[C@]4(C)[C@H]3[C@@H](O)C[C@@]21C` [Example 167, (1R,3aS,3bS,10aR,10bS,11S,12aS)-7-(6-Fluoropyridin-3-yl)-11-hydroxy-10a,12a-dimethyl-1-[(methylsulfanyl)carbonyl]-1,2,3,3a,3b,4,5,7,10,10a,10b,11,12,12a-tetradecahydrocyclopenta[5,6]naphtho[1,2-f]indazol-1-yl furan-2-carboxylate], 5.6 nM. Take `CCC(=O)O[C@]1(C(=O)SCC#N)CC[C@H]2[C@@H]3CCC4=Cc5c(cnn5-c5ccc(F)cc5)C[C@]4(C)[C@@]3(F)[C@@H](O)C[C@@]21C` [Example 199, (1R,3aS,3bS,10aS,10bR,11S,12aS)-1-{[(Cyanomethyl)sulfanyl]carbonyl}-10b-fluoro-7-(4-fluorophenyl)-11-hydroxy-10a,12a-dimethyl-1,2,3,3a,3b,4,5,7,10,10a,10b,11,12,12a-tetradecahydrocyclopenta[5,6]naphtho[1,2-f]indazol-1-yl propanoate]: the IC50 was found to be 4.6 nM.

For `CSC(=O)[C@@]1(OC(=O)c2cocn2)CC[C@H]2[C@@H]3CCC4=Cc5c(cnn5-c5ccc(F)nc5)C[C@]4(C)[C@H]3[C@@H](O)C[C@@]21C` [Example 161, (1R,3aS,3bS,10aR,10bS,11S,12aS)-7-(6-Fluoropyridin-3-yl)-11-hydroxy-10a,12a-dimethyl-1-[(methylsulfanyl)carbonyl]-1,2,3,3a,3b,4,5,7,10,10a,10b,11,12,12a-tetradecahydrocyclopenta[5,6]naphtho[1,2-f]indazol-1-yl 1,3-oxazole-4-carboxylate], the IC50 amounted to 1.3 nM. As for `C[C@]12Cc3cnn(-c4ccnnc4)c3C=C1CC[C@@H]1[C@@H]2[C@@H](O)C[C@@]2(C)[C@H]1CC[C@]2(OC(=O)C1CC1)C(=O)OCC#N` [Example 184, Cyanomethyl(1R,3aS,3bS,10aR,10bS,11S,12aS)-1-[(cyclopropylcarbonyl)oxy]-11-hydroxy-10a,12a-dimethyl-7-pyridazin-4-yl-1,2,3,3a,3b,4,5,7,10,10a,10b,11,12,12a-tetradecahydrocyclopenta[5,6]naphtho[1,2-f]indazole-1-carboxylate], the figure is 1.7 nM; as for `C[C@]12Cc3cnn(-c4ccc(F)c(F)c4)c3C=C1CC[C@@H]1[C@@H]2[C@@H](O)C[C@@]2(C)[C@H]1CC[C@]2(OC(=O)c1ccco1)C(=O)SCC#N` [Example 103, (1R,3aS,3bS,10aR,10bS,11S,12aS)-1-{[(Cyanomethyl)thio]carbonyl}-7-(3,4-difluorophenyl)-11-hydroxy-10a,12a-dimethyl-1,2,3,3a,3b,4,5,7,10,10a,10b,11,12,12a-tetradecahydrocyclopenta[5,6]naphtho[1,2-f]indazol-1-yl furan-2-carboxylate], 6.4 nM.
